Data taken from patent US7259140B2, “Heparin-binding peptides and uses thereof” (Thomas Jefferson University, priority 2003, dated 2007).
Ends that are not written are not given here.

What was measured:
[1] = test system: anti-Factor Xa Activity of the Low Molecular Weight Heparin Lovenox ®; experiment: Anti-Factor Xa assay (Stachrom Heparin kit): neutralization of Lovenox in citrate or plasma in vitro; type: biochemical, human; conditions: for Lovenox ® Neutralized: Lovenox 0.7 U/ml; for anti-LMWH effect in citrate compared with plasma: Table 2A; for Lovenox/LMWH neutralization compared with protamine: low concentrations, in the presence of plasma
Summary of the method: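 Chromogenic anti-Factor Xa kit run with UFH, enoxaparin (Lovenox) or danaparoid (Orgaran) in 0.32% citrate or citrated plasma from three volunteers. Heparin/ATIII complex formed, peptide added, then Factor Xa and dye substrate; absorbance at 405 nm, inversely proportional to remaining anti-Factor Xa activity.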

[2] = test system: Anti-Factor Xa Activity of the Non-Heparin Glycosaminoglycan Orgaran ®; experiment: Anti-Factor Xa assay: neutralization of Orgaran in citrate or plasma in vitro; type: biochemical, human
Description: The ability of peptides such as (ARKKAAKA)3VLVLVLVL (SEQ ID NO:5) to neutralize the anti-Factor Xa activity of UFH and LMWH in vitro was tested using the Stachrom Heparin kit (Diagnostica Stago), a standard hematology laboratory assay used to measure the anti-Factor Xa activity of heparin. The assay was performed using the low molecular weight heparin enoxaparin sodium (Lovenox®, Aventis Pharmaceuticals, Inc.), unfractionated heparin (UFH), or the non-heparin glycosaminoglycan danaparoid sodium (Orgaran®, Organon Inc., West Orange, N.J.) in 0.32% citrate or in plasma anticoagulated with 0.32% citrate. Enoxaparin is commonly used clinically as a low molecular weight heparin (LMWH). Danaparoid is commonly used clinically as a non-heparin glycosaminoglycan anticoagulant. Currently, the only FDA approved drug to target UFH is protamine, which is not effective in vivo against LMWH or a non-heparin glycosaminoglycan such as danaparoid. Buffer and ATIII are added to form the heparin/ATIII complex, peptide is added, then Factor Xa, reporter dye substrate for Factor Xa activity, and stop solution, and the dye concentration is read at 405 nm. The absorbance of the dye increases with increasing Factor Xa activity, and thus is inversely proportional to the heparin (anti-Factor Xa activity) concentration. Peptides were tested in plasma obtained from three volunteers (A, B, and C). Platelet function inhibitors PG12 and theophylline were added to the blood immediately upon collection. […]

[3] = test system: Lovenox ® Activity in Blood from Patients Treated with Lovenox ®; experiment: Neutralizing Lovenox activity in blood from patients treated with Lovenox (anti-Factor Xa assay); type: biochemical, human; conditions: for Lovenox ® Neutralized: Peptide 12 μg/ml
Summary of the method: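 Blood came from consenting volunteers already on Lovenox® therapy. Neutralizing peptides were tested as a dose response from 1–60 μg/ml. Each point is mean ± SD of triplicate analyses on one patient's blood sample.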

[4] = Hemodynamic effects in rats without prior Lovenox
Description: Rats were sedated, and catheters were inserted into the femoral vein and femoral artery. The femoral artery catheter was hooked up to the computerized monitoring system, and injections were made through the femoral vein. Peptides were injected into rats without prior injection of Lovenox. Two or more rats (300-350 grams) were treated with 2 mg protamine or peptide.
At the times indicated in the figures, the following actions were taken: administration of saline to insure that the animal and intubations were stable; administration of test peptide or protamine alone; then administration of protamine.

[5] = blood of Lovenox-treated Patient Number 1
[6] = blood of Lovenox-treated Patient Number 2
[7] = blood of Lovenox-treated Patient Number 3
[8] = blood of Lovenox-treated Patient Number 4
[9] = blood of Lovenox-treated Patient Number 5
[10] = blood of Lovenox-treated Patient Number 8
[11] = blood of Lovenox-treated Patient Number 9
[12] = blood of Lovenox-treated Patient Number 10
[13] = blood of Lovenox-treated Patient Number 11

ARKKAAKAARKKAAKAARKKAAKAARKKAAKA [(ARKKAAKA)4]
Lovenox ® Neutralized ([1]; 1 μg/ml Peptide, A Plasma): 0.020 ± 0.016 U/ml | Lovenox ® Neutralized ([1]; 1 μg/ml Peptide, B Plasma): 0.031 ± 0.015 U/ml | Lovenox ® Neutralized ([1]; 1 μg/ml Peptide, C Plasma): 0.059 ± 0.029 U/ml | Lovenox ® Neutralized ([1]; 1 μg/ml Peptide, Citrate): 0.141 ± 0.051 U/ml | Lovenox ® Neutralized ([1]; 6 μg/ml Peptide, A Plasma): 0.184 ± 0.038 U/ml | Lovenox ® Neutralized ([1]; 6 μg/ml Peptide, B Plasma): 0.178 ± 0.022 U/ml | Lovenox ® Neutralized ([1]; 6 μg/ml Peptide, C Plasma): 0.252 ± 0.024 U/ml | Lovenox ® Neutralized ([1]; 6 μg/ml Peptide, Citrate): 0.376 ± 0.019 U/ml | Lovenox ® Neutralized ([1]; 12 μg/ml Peptide, A Plasma): 0.287 ± 0.058 U/ml | Lovenox ® Neutralized ([1]; 12 μg/ml Peptide, B Plasma): 0.328 ± 0.041 U/ml | Lovenox ® Neutralized ([1]; 12 μg/ml Peptide, C Plasma): 0.325 ± 0.030 U/ml | Lovenox ® Neutralized ([1]; 12 μg/ml Peptide, Citrate): 0.473 ± 0.039 U/ml | Lovenox ® Neutralized ([1]; 60 μg/ml Peptide, A Plasma): 0.343 ± 0.090 U/ml | Lovenox ® Neutralized ([1]; 60 μg/ml Peptide, B Plasma): 0.488 ± 0.012 U/ml | Lovenox ® Neutralized ([1]; 60 μg/ml Peptide, C Plasma): 0.495 ± 0.032 U/ml | Lovenox ® Neutralized ([1]; 60 μg/ml Peptide, Citrate): 0.515 ± 0.016 U/ml | Lovenox ® Neutralized ([1]; 120 μg/ml Peptide, A Plasma): 0.601 ± 0.052 U/ml | Lovenox ® Neutralized ([1]; 120 μg/ml Peptide, B Plasma): 0.541 ± 0.065 U/ml | Lovenox ® Neutralized ([1]; 120 μg/ml Peptide, C Plasma): 0.570 ± 0.029 U/ml | Lovenox ® Neutralized ([1]; 120 μg/ml Peptide, Citrate): 0.509 ± 0.079 U/ml | anti-LMWH effect in citrate compared with plasma [1]: greater anti-LMWH effect in citrate than in plasma | Lovenox/LMWH neutralization compared with protamine [1]: more effective than protamine | Orgaran Neutralized ([2]; 1 μg/ml Peptide, A Plasma): 0.026 ± 0.021 U/ml | Orgaran Neutralized ([2]; 1 μg/ml Peptide, B Plasma): 0.025 ± 0.009 U/ml | Orgaran Neutralized ([2]; 1 μg/ml Peptide, C Plasma): 0.020 ± 0.012 U/ml | Orgaran Neutralized ([2]; 1 μg/ml Peptide, Citrate): 0.021 ± 0.022 U/ml | Orgaran Neutralized ([2]; 6 μg/ml Peptide, A Plasma): 0.061 ± 0.006 U/ml | Orgaran Neutralized ([2]; 6 μg/ml Peptide, B Plasma): 0.057 ± 0.022 U/ml | Orgaran Neutralized ([2]; 6 μg/ml Peptide, C Plasma): 0.074 ± 0.056 U/ml | Orgaran Neutralized ([2]; 6 μg/ml Peptide, Citrate): 0.172 ± 0.028 U/ml | Orgaran Neutralized ([2]; 12 μg/ml Peptide, A Plasma): 0.082 ± 0.012 U/ml | Orgaran Neutralized ([2]; 12 μg/ml Peptide, B Plasma): 0.110 ± 0.021 U/ml | Orgaran Neutralized ([2]; 12 μg/ml Peptide, C Plasma): 0.116 ± 0.021 U/ml | Orgaran Neutralized ([2]; 12 μg/ml Peptide, Citrate): 0.178 ± 0.021 U/ml | Orgaran Neutralized ([2]; 60 μg/ml Peptide, A Plasma): 0.211 ± 0.029 U/ml | Orgaran Neutralized ([2]; 60 μg/ml Peptide, B Plasma): 0.192 ± 0.009 U/ml | Orgaran Neutralized ([2]; 60 μg/ml Peptide, C Plasma): 0.182 ± 0.006 U/ml | Orgaran Neutralized ([2]; 60 μg/ml Peptide, Citrate): 0.298 ± 0.044 U/ml | Orgaran Neutralized ([2]; 120 μg/ml Peptide, A Plasma): 0.286 ± 0.040 U/ml | Orgaran Neutralized ([2]; 120 μg/ml Peptide, B Plasma): 0.302 ± 0.012 U/ml | Orgaran Neutralized ([2]; 120 μg/ml Peptide, C Plasma): 0.299 ± 0.024 U/ml | Orgaran Neutralized ([2]; 120 μg/ml Peptide, Citrate): 0.366 ± 0.019 U/ml | Lovenox ® Neutralized [3, 5]: 0.116 U/ml | Lovenox ® Neutralized [3, 6]: 0.073 U/ml | Lovenox ® Neutralized [3, 7]: 0.105 U/ml | Lovenox ® Neutralized [3, 8]: 0.225 U/ml | Lovenox ® Neutralized [3, 9]: 0.194 U/ml | Lovenox ® Neutralized [3, 10]: 0.289 U/ml | Lovenox ® Neutralized [3, 11]: 0.283 U/ml | Lovenox ® Neutralized [3, 12]: 0.194 U/ml | Lovenox ® Neutralized [3, 13]: 0.135 U/ml | time to nadir of blood pressure ([4]; 2 mg per rat, no Lovenox): 2 min

ARKKAAKAARKKAAKAARKKAAKAVLVLVLVL [(ARKKAAKA)3VLVLVLVL]
rank as neutralizing agent of Lovenox [1]: most effective neutralizing agents | Lovenox ® Neutralized ([1]; 1 μg/ml Peptide, A Plasma): 0.055 ± 0.041 U/ml | Lovenox ® Neutralized ([1]; 1 μg/ml Peptide, B Plasma): 0.035 ± 0.009 U/ml | Lovenox ® Neutralized ([1]; 1 μg/ml Peptide, C Plasma): 0.058 ± 0.054 U/ml | Lovenox ® Neutralized ([1]; 1 μg/ml Peptide, Citrate): 0.082 ± 0.027 U/ml | Lovenox ® Neutralized ([1]; 6 μg/ml Peptide, A Plasma): 0.292 ± 0.047 U/ml | Lovenox ® Neutralized ([1]; 6 μg/ml Peptide, B Plasma): 0.189 ± 0.066 U/ml | Lovenox ® Neutralized ([1]; 6 μg/ml Peptide, C Plasma): 0.202 ± 0.042 U/ml | Lovenox ® Neutralized ([1]; 6 μg/ml Peptide, Citrate): 0.288 ± 0.045 U/ml | Lovenox ® Neutralized ([1]; 12 μg/ml Peptide, A Plasma): 0.441 ± 0.058 U/ml | Lovenox ® Neutralized ([1]; 12 μg/ml Peptide, B Plasma): 0.376 ± 0.001 U/ml | Lovenox ® Neutralized ([1]; 12 μg/ml Peptide, C Plasma): 0.371 ± 0.031 U/ml | Lovenox ® Neutralized ([1]; 12 μg/ml Peptide, Citrate): 0.412 ± 0.035 U/ml | anti-Factor Xa activity of LMWH neutralized ([1]; 12 μg/ml, plasma): about 0.4 U/ml | Lovenox ® Neutralized ([1]; 60 μg/ml Peptide, A Plasma): 0.588 ± 0.027 U/ml | Lovenox ® Neutralized ([1]; 60 μg/ml Peptide, B Plasma): 0.561 ± 0.035 U/ml | Lovenox ® Neutralized ([1]; 60 μg/ml Peptide, C Plasma): 0.532 ± 0.023 U/ml | Lovenox ® Neutralized ([1]; 60 μg/ml Peptide, Citrate): 0.441 ± 0.010 U/ml | Lovenox ® Neutralized ([1]; 120 μg/ml Peptide, A Plasma): 0.575 ± 0.057 U/ml | Lovenox ® Neutralized ([1]; 120 μg/ml Peptide, B Plasma): 0.480 ± 0.035 U/ml | Lovenox ® Neutralized ([1]; 120 μg/ml Peptide, C Plasma): 0.485 ± 0.022 U/ml | Lovenox ® Neutralized ([1]; 120 μg/ml Peptide, Citrate): 0.463 ± 0.029 U/ml | anti-LMWH effect in citrate compared with plasma [1]: neutralize the same amount of Lovenox® in citrate and plasma | Lovenox/LMWH neutralization compared with protamine [1]: more effective than protamine | Orgaran Neutralized ([2]; 1 μg/ml Peptide, A Plasma): 0.028 ± 0.016 U/ml | Orgaran Neutralized ([2]; 1 μg/ml Peptide, B Plasma): 0.026 ± 0.011 U/ml | Orgaran Neutralized ([2]; 1 μg/ml Peptide, C Plasma): 0.035 ± 0.010 U/ml | Orgaran Neutralized ([2]; 1 μg/ml Peptide, Citrate): 0.078 ± 0.031 U/ml | Orgaran Neutralized ([2]; 6 μg/ml Peptide, A Plasma): 0.050 ± 0.026 U/ml | Orgaran Neutralized ([2]; 6 μg/ml Peptide, B Plasma): 0.049 ± 0.021 U/ml | Orgaran Neutralized ([2]; 6 μg/ml Peptide, C Plasma): 0.075 ± 0.005 U/ml | Orgaran Neutralized ([2]; 6 μg/ml Peptide, Citrate): 0.114 ± 0.007 U/ml | Orgaran Neutralized ([2]; 12 μg/ml Peptide, A Plasma): 0.109 ± 0.019 U/ml | Orgaran Neutralized ([2]; 12 μg/ml Peptide, B Plasma): 0.083 ± 0.016 U/ml | Orgaran Neutralized ([2]; 12 μg/ml Peptide, C Plasma): 0.114 ± 0.010 U/ml | Orgaran Neutralized ([2]; 12 μg/ml Peptide, Citrate): 0.227 ± 0.017 U/ml | Orgaran Neutralized ([2]; 60 μg/ml Peptide, A Plasma): 0.281 ± 0.036 U/ml | Orgaran Neutralized ([2]; 60 μg/ml Peptide, B Plasma): 0.258 ± 0.013 U/ml | Orgaran Neutralized ([2]; 60 μg/ml Peptide, C Plasma): 0.248 ± 0.020 U/ml | Orgaran Neutralized ([2]; 60 μg/ml Peptide, Citrate): 0.380 ± 0.021 U/ml | Orgaran Neutralized ([2]; 120 μg/ml Peptide, A Plasma): 0.366 ± 0.010 U/ml | Orgaran Neutralized ([2]; 120 μg/ml Peptide, B Plasma): 0.320 ± 0.010 U/ml | Orgaran Neutralized ([2]; 120 μg/ml Peptide, C Plasma): 0.296 ± 0.011 U/ml | Orgaran Neutralized ([2]; 120 μg/ml Peptide, Citrate): 0.345 ± 0.032 U/ml | effectiveness in neutralizing Lovenox in blood of patients [3]: most consistently effective | Lovenox ® Neutralized [3, 5]: 0.213 U/ml | Lovenox ® Neutralized [3, 6]: 0.252 U/ml | Lovenox ® Neutralized [3, 7]: 0.302 U/ml | Lovenox ® Neutralized [3, 8]: 0.439 U/ml | Lovenox ® Neutralized [3, 9]: 0.265 U/ml | Lovenox ® Neutralized [3, 10]: 0.268 U/ml | Lovenox ® Neutralized [3, 11]: 0.478 U/ml | Lovenox ® Neutralized [3, 12]: 0.436 U/ml | Lovenox ® Neutralized [3, 13]: 0.398 U/ml | effect on blood pressure ([4]; 2 mg per rat, no Lovenox): In most rats no drop in blood pressure was seen | duration of transient blood pressure drop ([4]; in one rat): 1 to 2 min
